Assay results from patent US12291494B2, “Methods of treating fibrosis” (Nogra Pharma Limited, priority 2012, dated 2025).

Assays:
Male C57bl6 mice = test: CCl4-induced liver fibrosis: histology (Metavir score); assay type: in vivo
Procedure: Liver fibrosis was induced in Male C57bl6 mice (Charles River, l'Arbresle, France) by injection of carbon tetrachloride (CCl4). The C57bl6 mice weighed 22-25 g and were maintained in laboratory conditions for 1 week before experiment. Animals were housed 5 per cage with food and water available ad libitum.
The effectiveness of compound 34 (specific ligand of PPARg) as compared to JWH-133 (anti-fibrogenic agent) was evaluated. Compound 34 was administered orally in combination with CCl4 injections for ca. 5 weeks. Compound 34 was dosed daily at 200 uL of a 30 mM solution. JWH-133 was administered daily via intraperitoneal injections at 3 mg/kg (dose volume=100 uL). The model of liver fibrosis is induced by chronic exposure to increased dosages of CCl4 for 5 weeks. The first week, mice received an intraperitoneal injection of CCl4, resuspended in olive oil, at the dosage of 80 μl/kg of mice body weight twice a week. At week 2, 3 injections of CCl4 at the dosage of 160 μl/kg were performed every two days. At week 3, 3 injections of CCl4 at the dosage of 240 μl/kg were performed every two days. At week 4, 3 injections of CCl4 at the dosage of 320 μl/kg were performed every two days. Mice were euthanized, at week 5, 3 days after the last CCl4 administration.
The formalin-fixed liver tissue was processed and 5 μm thick paraffin sections were stained with hematoxylin and eosin (H&E) and Picrosirius red staining (specific coloration for collagen in tissue sections) to evaluate the degree of fibrosis in the liver. Each section was analyzed blindly by 3 different experimenters for the quantification of the degree of fibrosis for each lobe of the liver (5) using the Metavir score (see FIG. 2A for Metavir Score chart). The photographs seen in FIG. 2B were obtained with a 20× objective.

Collagen-1 = test: Liver gene expression by quantitative Real Time PCR: collagen-1; assay type: in vivo, mice; settings: liver mRNA, normalized to β-actin, CCl4 group 138.12 ± 34.68
Procedure: (§1) The effect of administration of compound 34 (GED) and the specific CB2 agonist (JWH-133) was evaluated on the level of gene expression of cytokines (IL-1β, TNF-α) and genes involved in the mechanism of fibrosis by quantitative Real Time PCR.
(§2) Total RNA was isolated from livers using Rneasy kit (Macherey Nagel, Hoerdt, France) according to the manufacturer's instructions. RNA quantification was performed using spectrophotometry. After treatment at 37° C. for 30 min with 20-50 units of RNase-free DNase I (Roche Diagnostics Corporation, Indianapolis, IN, USA), oligo-dT primers (Roche Diagnostics Corporation, Indianapolis, USA) were used to synthesize single-stranded cDNA. mRNAs were quantified using SYBR green Master Mix (Applera, Courtaboeuf, France) with murine specific oligonucleotides (see Table 2) in a GeneAmp Abiprism 7000 (Applera, Courtaboeuf, France). In each assay, calibrated and no-template controls were included. Each sample was run in triplicate. SYBR green dye intensity was analyzed using the Abiprism 7000 SDS software (Applera, Courtaboeuf, France). All results were normalized to the unaffected housekeeping gene β-actin.

α-SMA [1] = test: Liver gene expression by quantitative Real Time PCR: α-SMA; assay type: in vivo, mice; settings: liver mRNA, normalized to β-actin; CCl4 group 65.51 ± 22.24
Procedure: as §1, §2

α-SMA [2] = test: DSS intestinal fibrosis study: Western blot of colon, α-SMA; assay type: in vivo, mice; settings: whole colon, OD normalized with GAPDH, expressed as percentage of control groups; DSS 125.4 ± 19.45
Procedure: (§3) For the Western blot analysis, 0.5 cm of frozen colonic samples were homogenized in RIPA Buffer containing 50 mM Tris HCl pH 7.6, 150 mM NaCl, 1.5 mM MgCl2, 5 mM EDTA, 1% Triton-X and 10% Glycerol, supplemented with 100 mM Sodium Fluoride (NaF), 2 mM Sodium Orthovanadate (Na3VO4), 10 mM Sodium Pyrophosphate (NaPPi), 1 mM phenylmethanesulphone (PMSF) and a classical protease-inhibitor cocktail containing 10 μg/mL Leupeptin and Aprotinin.
(§4) For each sample, 30 μg of protein was separated by PAGE and electroblotted. Nitrocellulose membranes (100% pure) were incubated (according with a specific protocol for each antibody) with primary antibodies directed against CTGF, Collagen-I and GAPDH (purchased from Abcam, Cambridge, UK; 1:1000 for 2 h at RT), diluted in 5% non-fat milk in 0.1% TBS-t. […] Optical density of target bands was determined using a computer-assisted densitometer and the ImageJ public domain software (W. S., Rasband, ImageJ, U. S. National Institutes of Health, Bethesda, MD; http://rsb.info.nih.gov/ij/, 1997-2011). Tissue levels were expressed as units of Optical Density (OD) per quantity of total proteins, normalized with internal control GAPDH and the results were expressed as percentage of control groups.

Collagen I = test: DSS intestinal fibrosis study: Western blot of colon, Collagen I; assay type: in vivo, mice; settings: whole colon, OD normalized with GAPDH, expressed as percentage of control groups; DSS 284.4 ± 63.86; listed as GED
Procedure: as §3, §4

CTGF = test: DSS intestinal fibrosis study: Western blot of colon, CTGF; assay type: in vivo, mice; settings: whole colon, OD normalized with GAPDH, expressed as percentage of control groups; DSS 115.1 ± 16.88; listed as GED
Procedure: as §3, §4

COC(Cc1ccc(N)cc1)C(=O)O (racemic) [Compound 34, (±)-2-methoxy-3-(4′-aminophenyl) propionic acid]
decrease of the fibrotic score (adapted Metavir score) compared to untreated animals (Male C57bl6 mice; FIG. 3B): 12.5% | mean Metavir score (FIG. 3A) (Male C57bl6 mice; compound 34 30 mM 200 uL oral daily, JWH-133 3 mg/kg i.p. daily, CCl4 vehicle group 2.5±0.5): 2.1±0.2 | degree of fibrosis (Metavir) (Male C57bl6 mice; result in words): decrease in the degree of fibrosis from severe to moderate fibrosis | Collagen-1 (Collagen-1): 75.15 ± 5.23, p = 0.03 | Collagen-1 (Collagen-1; listed as compound 34): 42.81±14.81 | α-SMA (α-SMA [1]): 42.81 ± 14.81 | α-SMA (Western blot) (α-SMA [2]): 97.88 ± 15.66 | Collagen I (Western blot) (Collagen I): 90.75±19.91 | CTGF (Western blot) (CTGF): 55.75±17.53
